Measured values published in ChEMBL document CHEMBL1201862, “PubChem BioAssay data set” (2004).
The source made the active and inactive calls.

Legend:
Assay type in all cases: functional
[1] = target: T1, Endoribonuclease toxin MazF (Escherichia coli K-12, UniProt P0AE70); experiment: fluorescent RNA oligo signal without MazF, dose response, counter-screen for MazEF activator project, biochemical, fluorescence, single-stranded RNase substrate (AID 588502)
T1 sequence (P0AE70 whole entry): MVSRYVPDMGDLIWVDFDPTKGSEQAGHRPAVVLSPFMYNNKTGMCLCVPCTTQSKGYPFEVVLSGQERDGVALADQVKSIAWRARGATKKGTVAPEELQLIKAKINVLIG

[2] = target: T1, Endoribonuclease toxin MazF; experiment: MazF toxin RNase activators, dose response, biochemical, fluorescence, single-stranded RNA substrate, uHTS hits (AID 588481)
[3] = target: T2, Sentrin-specific protease 7 (Homo sapiens, UniProt Q9BQF6);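 further: Luminescence-based dose-response confirmation of ultra-high-throughput screening hits, measuring inhibition of SENP7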
T2 sequence (Q9BQF6 whole entry): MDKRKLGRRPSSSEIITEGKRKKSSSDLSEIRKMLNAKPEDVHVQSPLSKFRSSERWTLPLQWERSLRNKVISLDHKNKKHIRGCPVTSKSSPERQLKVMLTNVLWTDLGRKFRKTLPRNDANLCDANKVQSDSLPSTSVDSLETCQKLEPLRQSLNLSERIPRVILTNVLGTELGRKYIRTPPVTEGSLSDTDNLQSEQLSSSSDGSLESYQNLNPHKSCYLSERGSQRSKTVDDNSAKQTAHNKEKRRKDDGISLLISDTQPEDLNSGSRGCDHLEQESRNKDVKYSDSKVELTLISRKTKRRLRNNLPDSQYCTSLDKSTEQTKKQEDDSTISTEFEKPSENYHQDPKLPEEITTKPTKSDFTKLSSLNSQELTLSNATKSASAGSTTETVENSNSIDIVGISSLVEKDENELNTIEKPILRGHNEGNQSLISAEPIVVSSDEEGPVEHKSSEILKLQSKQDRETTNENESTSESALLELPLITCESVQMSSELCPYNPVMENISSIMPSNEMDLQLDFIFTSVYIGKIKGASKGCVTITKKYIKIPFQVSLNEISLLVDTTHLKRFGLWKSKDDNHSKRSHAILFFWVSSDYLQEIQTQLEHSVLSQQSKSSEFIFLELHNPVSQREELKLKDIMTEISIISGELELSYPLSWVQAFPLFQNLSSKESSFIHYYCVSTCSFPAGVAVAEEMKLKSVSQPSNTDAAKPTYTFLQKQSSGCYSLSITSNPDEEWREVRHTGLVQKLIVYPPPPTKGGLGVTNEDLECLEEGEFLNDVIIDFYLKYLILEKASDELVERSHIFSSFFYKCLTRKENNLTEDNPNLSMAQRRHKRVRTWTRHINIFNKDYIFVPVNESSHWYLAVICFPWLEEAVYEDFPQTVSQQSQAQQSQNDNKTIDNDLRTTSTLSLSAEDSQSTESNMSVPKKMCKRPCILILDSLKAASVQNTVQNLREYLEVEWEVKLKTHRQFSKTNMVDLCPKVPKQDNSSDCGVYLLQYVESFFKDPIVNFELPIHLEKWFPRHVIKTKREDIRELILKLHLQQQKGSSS

[4] = target: T3, Sentrin-specific protease 6 (Homo sapiens, UniProt Q9GZR1);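 further: Luminescence-based dose-response confirmatory assay of SENP6 inhibition, following up an ultra-high-throughput screen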
T3 sequence (Q9GZR1 whole entry): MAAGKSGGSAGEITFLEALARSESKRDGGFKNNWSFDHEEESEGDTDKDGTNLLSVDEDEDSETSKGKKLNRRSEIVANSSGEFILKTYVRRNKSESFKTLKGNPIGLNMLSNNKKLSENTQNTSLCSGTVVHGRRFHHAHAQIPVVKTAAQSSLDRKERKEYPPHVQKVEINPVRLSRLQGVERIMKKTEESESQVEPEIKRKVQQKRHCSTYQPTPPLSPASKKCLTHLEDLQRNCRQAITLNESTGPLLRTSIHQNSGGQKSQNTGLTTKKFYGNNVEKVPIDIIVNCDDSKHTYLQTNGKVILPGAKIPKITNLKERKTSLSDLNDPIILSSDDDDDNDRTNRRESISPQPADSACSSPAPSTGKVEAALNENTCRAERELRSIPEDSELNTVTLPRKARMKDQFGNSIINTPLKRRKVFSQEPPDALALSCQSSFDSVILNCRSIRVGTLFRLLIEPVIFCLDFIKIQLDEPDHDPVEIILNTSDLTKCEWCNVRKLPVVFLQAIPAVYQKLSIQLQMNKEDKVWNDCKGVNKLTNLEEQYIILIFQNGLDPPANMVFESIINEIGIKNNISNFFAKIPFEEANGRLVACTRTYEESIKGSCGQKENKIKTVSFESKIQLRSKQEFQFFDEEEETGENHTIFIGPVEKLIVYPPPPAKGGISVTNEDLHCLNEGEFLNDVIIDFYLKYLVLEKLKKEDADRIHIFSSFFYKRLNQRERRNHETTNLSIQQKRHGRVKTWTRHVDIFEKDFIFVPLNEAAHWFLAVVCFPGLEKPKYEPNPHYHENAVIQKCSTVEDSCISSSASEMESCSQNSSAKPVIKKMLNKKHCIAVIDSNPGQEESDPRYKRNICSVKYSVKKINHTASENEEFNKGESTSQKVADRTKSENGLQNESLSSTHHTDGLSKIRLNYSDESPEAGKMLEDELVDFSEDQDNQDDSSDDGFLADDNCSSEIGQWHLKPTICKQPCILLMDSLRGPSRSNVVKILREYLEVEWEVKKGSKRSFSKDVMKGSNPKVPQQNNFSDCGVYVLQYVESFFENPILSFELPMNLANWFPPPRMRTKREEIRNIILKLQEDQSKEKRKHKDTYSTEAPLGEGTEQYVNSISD

[5] = target: T4, Sentrin-specific protease 8 (Homo sapiens, UniProt Q96LD8);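 further: luminescence read-out of SENP8 inhibition, dose-response confirmation following an ultra-high-throughput screen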
T4 sequence (Q96LD8 whole entry): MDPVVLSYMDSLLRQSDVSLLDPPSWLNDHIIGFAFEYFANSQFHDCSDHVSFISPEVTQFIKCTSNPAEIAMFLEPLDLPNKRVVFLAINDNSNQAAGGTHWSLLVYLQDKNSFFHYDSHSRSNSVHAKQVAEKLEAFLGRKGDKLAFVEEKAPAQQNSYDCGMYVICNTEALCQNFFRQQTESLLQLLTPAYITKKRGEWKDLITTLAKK

[6] = target: T5, Caspase-3 (Homo sapiens, UniProt P42574);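 further: Dose-response selectivity test against caspase-3 for candidate inhibitors of sentrin-specific proteases (SENPs)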
T5 sequence (P42574 whole entry): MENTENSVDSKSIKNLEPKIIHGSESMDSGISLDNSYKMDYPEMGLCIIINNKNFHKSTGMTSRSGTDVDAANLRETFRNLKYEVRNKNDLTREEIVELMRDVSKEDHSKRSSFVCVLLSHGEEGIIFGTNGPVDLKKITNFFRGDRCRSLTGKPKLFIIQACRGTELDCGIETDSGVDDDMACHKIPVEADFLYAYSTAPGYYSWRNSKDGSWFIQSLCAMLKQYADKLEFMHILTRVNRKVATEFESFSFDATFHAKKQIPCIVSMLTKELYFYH

[7] = target: T6, Heat shock factor protein 1 (Mus musculus, UniProt P38532); experiment: HSF1 potentiators in luciferase reporter cells, confirmation, cell-based, NIH3T3, luminescence, dose retest (AID 435004);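 further: stress induced by proteasome inhibitor MG132 added 30 min after compound; luciferase reporter driven by HSF1 response element in NIH3T3 cells; actives raise luminescence as potentiators of the MG132 stress response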
T6 sequence (P38532 whole entry): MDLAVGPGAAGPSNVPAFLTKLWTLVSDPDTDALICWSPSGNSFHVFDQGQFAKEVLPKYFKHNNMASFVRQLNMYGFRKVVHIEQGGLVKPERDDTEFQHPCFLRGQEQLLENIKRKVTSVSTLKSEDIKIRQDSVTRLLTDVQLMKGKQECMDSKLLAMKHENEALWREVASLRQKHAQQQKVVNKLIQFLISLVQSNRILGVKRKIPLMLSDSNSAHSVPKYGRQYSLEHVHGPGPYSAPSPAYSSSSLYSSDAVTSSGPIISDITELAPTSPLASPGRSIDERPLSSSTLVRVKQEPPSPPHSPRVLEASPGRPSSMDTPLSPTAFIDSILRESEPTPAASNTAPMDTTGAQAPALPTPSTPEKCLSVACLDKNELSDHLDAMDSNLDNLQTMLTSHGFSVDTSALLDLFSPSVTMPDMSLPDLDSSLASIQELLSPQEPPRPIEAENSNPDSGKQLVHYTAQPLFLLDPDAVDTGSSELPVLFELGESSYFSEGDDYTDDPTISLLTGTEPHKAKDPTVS

[8] = target: T7, Low molecular weight phosphotyrosine protein phosphatase (Homo sapiens, UniProt P24666); settings: read-out: IC50_Mean;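 further: Dose-response confirmation assay measuring inhibition of LMPTP enzyme activity by fluorescence intensity read-out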
T7 sequence (P24666 whole entry): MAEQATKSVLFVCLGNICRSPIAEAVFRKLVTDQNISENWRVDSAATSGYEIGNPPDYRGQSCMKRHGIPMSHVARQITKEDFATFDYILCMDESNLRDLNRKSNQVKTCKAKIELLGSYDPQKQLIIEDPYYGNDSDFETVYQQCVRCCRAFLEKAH

Compound	EC50 [1]	EC50 [2]	IC50 [3]	IC50 [4]	IC50 [5]	IC50 [6]	EC50 [7]	IC50 [8]
Cc1cccc(C(=O)OCc2cc3ccccc3[nH]c2=O)c1	> 99 µM (inactive)	> 99 µM (inactive)						
O=C(Nc1cccc(Cl)c1)N1CCc2ccccc2C1			7.31 µM (active)	25.5 µM (active)	26.1 µM (active)	18.9 µM (active)		
Cc1ccc(C(=O)c2sc3nsc(C)c3c2N)cc1			4.6 µM (active)	> 100 µM (inactive)	> 100 µM (inactive)	28.9 µM (active)	> 260 µM (inconclusive)	
CN(C)/C=C/C(=O)c1ccc(OCCN(C)c2ccccn2)cc1								29.9 µM (inactive)
O=C1CSC(=S)N1N=Cc1c(O)ccc2ccccc12	> 99 µM (inactive)	> 99 µM (inactive)						
CS(=O)(=O)Nc1ccc(C(=O)Nc2ccc3ccccc3c2)cc1			2.98 µM (active)	> 100 µM (inactive)	> 100 µM (inactive)	6.3 µM (active)		
C=COC(=O)CSc1nc(-c2cccs2)ccc1C#N			16.4 µM (active)	6.53 µM (active)	8.96 µM (active)	13.3 µM (active)		
CCOC(=O)CSc1nc2ccc(C)cc2cc1C#N	> 99 µM (inactive)	9.32 µM (active)						
COCCCn1c(=O)/c(=C\c2ccccc2OC(F)F)s/c1=C(/C#N)C(=O)NCCOC	> 99 µM (inactive)	> 99 µM (inactive)						
CCn1cc(C=C2C(=O)c3ccccc3C2=O)c2ccccc21	35.9 µM (inactive)	> 99 µM (inactive)						
